# Test results reported in patent publication US20100298141A1, “SUBSTITUTED PYRIDINE N-OXIDE HERBICIDES” (E. I. DU PONT DE NEMOURS AND COMPANY, priority 2007, published 2010).
# Assays:
# [1] = tested on: eastern black nightshade; assay: Test C pre-/postemergence test; assay type: in vivo, Solanum ptycanthum; settings: for Plant response rating, Nightshade: 31 g ai/ha, scale 0 to 100 (0 no effect, 100 complete control)
# Procedure, shortened: (§1)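 Seeds were planted and treated preemergence with test chemical in a non-phytotoxic solvent mixture containing surfactant. Postemergence applications of the same formulation went onto plants 2 to 18 cm tall (1- to 4-leaf stage). A dash marks no test result.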
# [2] = tested on: morningglory; assay: Test A pre-/postemergence greenhouse test; assay type: in vivo, Ipomoea spp.; settings: for Plant response rating, Morningglory: 0 to 100 scale where 0 is no effect and 100 is complete control; for Morningglory plant response rating: 0 to 100 scale
# Procedure, shortened: (§2)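 Two application timings were run side by side in the greenhouse. Before emergence, compound went onto the soil surface of loam–sand pots as a directed spray; after emergence, plants at 2–10 cm and the one- to two-leaf stage were treated. Visual injury versus controls was rated at approximately day ten.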
# [3] = tested on: Italian ryegrass; assay: Test C pre-/postemergence test; assay type: in vivo, Lolium multiflorum; settings: for Plant response rating, Ryegrass, Italian: 31 g ai/ha, scale 0 to 100 (0 no effect, 100 complete control)
# Procedure, shortened: as §1
# [4] = tested on: Goosegrass; assay: Test C pre-/postemergence test; assay type: in vivo, Eleusin indica; settings: for Plant response rating, Goosegrass: 31 g ai/ha, scale 0 to 100 (0 no effect, 100 complete control)
# Procedure, shortened: as §1
# [5] = tested on: umbrella sedge; assay: Test C flooded paddy test; assay type: in vivo, Cyperus difformis; settings: Flood
# Procedure, shortened: (§3)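 Under a constant 3 cm flood, test compounds went directly into the paddy water. Following 13 to 15 days of greenhouse growth, treated species and controls were compared by eye.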
# [6] = tested on: common (oilseed) sunflower; assay: Test C pre-/postemergence test; assay type: in vivo, Helianthus annuus; settings: for Plant response rating, Sunflower: 31 g ai/ha, scale 0 to 100 (0 no effect, 100 complete control)
# Procedure, shortened: as §1
# [7] = tested on: redroot pigweed; assay: Test A pre-/postemergence greenhouse test; assay type: in vivo, Amaranthus retroflexus; settings: for Plant response rating, Pigweed: 0 to 100 scale where 0 is no effect and 100 is complete control; for Pigweed plant response rating: 0 to 100 scale
# Procedure, shortened: as §2
# [8] = tested on: yellow nutsedge; assay: Test C pre-/postemergence test; assay type: in vivo, Cyperus esculentus; settings: for Plant response rating, Nutsedge, Yellow: 31 g ai/ha, scale 0 to 100 (0 no effect, 100 complete control)
# Procedure, shortened: as §1
# [9] = tested on: duck salad; assay: Test C flooded paddy test; assay type: in vivo, Heteranthera limosa; settings: Flood
# Procedure, shortened: as §3
# [10] = tested on: corn; assay: Test C pre-/postemergence test; assay type: in vivo, Zea mays; settings: for Plant response rating, Corn: 31 g ai/ha, scale 0 to 100 (0 no effect, 100 complete control)
# Procedure, shortened: as §1
# [11] = tested on: wheat; assay: Test C pre-/postemergence test; assay type: in vivo, Triticum aestivum; settings: for Plant response rating, Wheat: 31 g ai/ha, scale 0 to 100 (0 no effect, 100 complete control)
# Procedure, shortened: as §1
# [12] = tested on: crabgrass; assay: Test A pre-/postemergence greenhouse test; assay type: in vivo, Digitaria sanguinalis; settings: for Plant response rating, Crabgrass, Large: 0 to 100 scale where 0 is no effect and 100 is complete control; for Crabgrass, Large plant response rating: 0 to 100 scale
# Procedure, shortened: as §2
# [13] = tested on: common ragweed; assay: Test C pre-/postemergence test; assay type: in vivo, Ambrosia elation
# Procedure, shortened: as §1
# [14] = tested on: green foxtail; assay: Test C pre-/postemergence test; assay type: in vivo, Setaria viridis; settings: for Plant response rating, Foxtail, Green: 31 g ai/ha, scale 0 to 100 (0 no effect, 100 complete control)
# Procedure, shortened: as §1
# [15] = tested on: wild oat; assay: Test C pre-/postemergence test; assay type: in vivo, Avena fatua; settings: for Plant response rating, Oat, Wild: 31 g ai/ha, scale 0 to 100 (0 no effect, 100 complete control)
# Procedure, shortened: as §1
# [16] = tested on: blackgrass; assay: Test C pre-/postemergence test; assay type: in vivo, Alopecurus myosuroides; settings: for Plant response rating, Blackgrass: 31 g ai/ha, scale 0 to 100 (0 no effect, 100 complete control)
# Procedure, shortened: as §1
# [17] = tested on: woolly cupgrass; assay: Test C pre-/postemergence test; assay type: in vivo, Eriochloa villosa; settings: for Plant response rating, Cupgrass, Woolly: 31 g ai/ha, scale 0 to 100 (0 no effect, 100 complete control)
# Procedure, shortened: as §1
# [18] = 62 g ai/ha, Preemergence, scale 0 to 100
# [19] = 125 g ai/ha, preemergence, scale 0 (no effect) to 100 (complete control)
# [20] = preemergence, 250 g ai/ha, scale 0 (no effect) to 100 (complete control)
# [21] = Postemergence, 500 g ai/ha, 0 is no effect, 100 is complete control
# [22] = Preemergence, 125 g ai/ha, 0 no effect, 100 complete control
# [23] = Preemergence, 500 g ai/ha, 0 no effect, 100 complete control
# [24] = 62 g ai/ha, scale 0 to 100 (0 no effect, 100 complete control)
# [25] = 250 g ai/ha, scale 0 to 100, 0 no effect, 100 complete control, 13 to 15 days
# [26] = Postemergence, 125 g ai/ha, 0 is no effect, 100 is complete control
# [27] = 31 g ai/ha, scale 0 to 100 (0 no effect, 100 complete control)
# [28] = 62 g ai/ha, scale 0 to 100, 0 no effect, 100 complete control, 13 to 15 days
# [29] = preemergence, 125 g ai/ha, scale 0 (no effect) to 100 (complete control)
compound,measurement,setting,value
Cc1cc[n+]([O-])c(S(=O)(=O)Cc2c(C(F)(F)C(F)(F)F)nn(C)c2OCC(F)(F)F)c1 [Compound 99],Nightshade plant response rating,[1]; [18],98
same,Nightshade plant response rating,[1]; [19],100
same,"Plant response rating, Nightshade",[1]; Preemergence,90
same,Nightshade plant response rating,[1]; [20],100
same,"Plant response rating, Morningglory","[2]; Postemergence, 125 g ai/ha",40
same,Morningglory plant response rating,[2]; [21],50
same,Morningglory plant response rating,[2]; [22],50
same,Morningglory plant response rating,[2]; [23],100
same,"Ryegrass, Italian plant response rating",[3]; [18],70
same,"Ryegrass, Italian plant response rating",[3]; [19],75
same,"Plant response rating, Ryegrass, Italian",[3]; Preemergence,70
same,"Ryegrass, Italian plant response rating",[3]; [20],100
same,Goosegrass plant response rating,[4]; [18],95
same,Goosegrass plant response rating,[4]; [19],100
same,"Plant response rating, Goosegrass",[4]; Preemergence,85
same,Goosegrass plant response rating,[4]; [20],100
same,"Plant response rating, Sedge, Umbrella",[5]; [24],0
same,"Plant response rating, Sedge, Umbrella",[5]; [25],65
same,Sunflower plant response rating,[6]; [18],30
same,Sunflower plant response rating,[6]; [19],30
same,"Plant response rating, Sunflower",[6]; Preemergence,30
same,Sunflower plant response rating,[6]; [20],40
same,"Plant response rating, Pigweed","[7]; Postemergence, 125 g ai/ha",10
same,Pigweed plant response rating,[7]; [21],60
same,Pigweed plant response rating,[7]; [22],100
same,Pigweed plant response rating,[7]; [23],100
same,"Nutsedge, Yellow plant response rating",[8]; [18],60
same,"Nutsedge, Yellow plant response rating",[8]; [19],60
same,"Plant response rating, Nutsedge, Yellow",[8]; Preemergence,0
same,"Nutsedge, Yellow plant response rating",[8]; [20],80
same,"Plant response rating, Ducksalad",[9]; [24],0
same,"Plant response rating, Ducksalad",[9]; [25],65
same,Corn plant response rating,[10]; [18],0
same,Corn plant response rating,[10]; [19],30
same,"Plant response rating, Corn",[10]; Preemergence,0
same,Corn plant response rating,[10]; [20],50
same,Wheat plant response rating,[11]; [18],55
same,Wheat plant response rating,[11]; [19],55
same,"Plant response rating, Wheat",[11]; Preemergence,25
same,Wheat plant response rating,[11]; [20],95
same,"Plant response rating, Crabgrass, Large","[12]; Postemergence, 125 g ai/ha",60
same,"Crabgrass, Large plant response rating",[12]; [21],80
same,"Crabgrass, Large plant response rating",[12]; [22],80
same,"Crabgrass, Large plant response rating",[12]; [23],100
same,Ragweed plant response rating,[13]; [18],100
same,Ragweed plant response rating,[13]; [19],100
same,Ragweed plant response rating,[13]; [20],100
same,"Foxtail, Green plant response rating",[14]; [18],80
same,"Foxtail, Green plant response rating",[14]; [19],100
same,"Plant response rating, Foxtail, Green",[14]; Preemergence,80
same,"Foxtail, Green plant response rating",[14]; [20],100
same,"Oat, Wild plant response rating",[15]; [18],80
same,"Oat, Wild plant response rating",[15]; [19],95
same,"Plant response rating, Oat, Wild",[15]; Preemergence,30
same,"Oat, Wild plant response rating",[15]; [20],95
same,Blackgrass plant response rating,[16]; [18],100
same,Blackgrass plant response rating,[16]; [19],100
same,"Plant response rating, Blackgrass",[16]; Preemergence,80
same,Blackgrass plant response rating,[16]; [20],100
same,"Cupgrass, Woolly plant response rating",[17]; [18],0
same,"Cupgrass, Woolly plant response rating",[17]; [19],70
same,"Plant response rating, Cupgrass, Woolly",[17]; Preemergence,0
same,"Cupgrass, Woolly plant response rating",[17]; [20],85
Cn1nc(C(F)(F)F)c(CS(=O)(=O)c2cccc[n+]2[O-])c1OCC(F)(F)F [Compound 29],Nightshade plant response rating,[1]; [18],98
same,"Plant response rating, Nightshade",[1]; Preemergence,75
same,Morningglory plant response rating,[2]; [26],30
same,Morningglory plant response rating,[2]; [21],80
same,Morningglory plant response rating,[2]; [22],70
same,"Plant response rating, Morningglory","[2]; Preemergence, 500 g ai/ha",80
same,"Ryegrass, Italian plant response rating",[3]; [18],85
same,"Plant response rating, Ryegrass, Italian",[3]; Preemergence,60
same,Goosegrass plant response rating,[4]; [18],100
same,"Plant response rating, Goosegrass",[4]; Preemergence,100
same,"Plant response rating (0 to 100), Goosegrass","[4]; Preemergence, 250 g ai/ha",100
same,"Plant response rating, Sedge, Umbrella",[5]; [27],80
same,"Plant response rating, Sedge, Umbrella",[5]; [28],90
same,"Plant response rating, Sedge, Umbrella","[5]; 125 g ai/ha, scale 0 to 100, 0 no effect, 100 complete control, 13 to 15 days",90
same,"Plant response rating, Sedge, Umbrella",[5]; [25],95
same,Sunflower plant response rating,[6]; [18],60
same,"Plant response rating, Sunflower",[6]; Preemergence,0
same,Pigweed plant response rating,[7]; [26],70
same,Pigweed plant response rating,[7]; [21],80
same,Pigweed plant response rating,[7]; [22],100
same,"Plant response rating, Pigweed","[7]; Preemergence, 500 g ai/ha",100
same,"Nutsedge, Yellow plant response rating",[8]; [18],100
same,"Plant response rating, Nutsedge, Yellow",[8]; Preemergence,80
same,"Plant response rating, Ducksalad",[9]; [27],70
same,"Plant response rating, Ducksalad",[9]; [28],80
same,"Plant response rating, Ducksalad","[9]; 250 g ai/ha, scale 0 to 100 (0 no effect, 100 complete control)",90
same,Corn plant response rating,[10]; [18],80
same,"Plant response rating, Corn",[10]; Preemergence,0
same,"Plant response rating (0 to 100), Corn","[10]; Preemergence, 250 g ai/ha",98
same,Corn plant response rating,[10]; [29],98
same,Wheat plant response rating,[11]; [18],30
same,"Plant response rating, Wheat",[11]; Preemergence,20
same,"Crabgrass, Large plant response rating",[12]; [26],80
same,"Crabgrass, Large plant response rating",[12]; [21],90
same,"Crabgrass, Large plant response rating",[12]; [22],90
same,"Plant response rating, Crabgrass, Large","[12]; Preemergence, 500 g ai/ha",100
same,Ragweed plant response rating,[13]; [18],30
same,"Foxtail, Green plant response rating",[14]; [18],100
same,"Plant response rating, Foxtail, Green",[14]; Preemergence,85
same,"Plant response rating (0 to 100), Foxtail, Green","[14]; Preemergence, 250 g ai/ha",100
same,"Oat, Wild plant response rating",[15]; [18],50
same,"Plant response rating, Oat, Wild",[15]; Preemergence,20
same,Blackgrass plant response rating,[16]; [18],100
same,"Plant response rating, Blackgrass",[16]; Preemergence,98
same,"Plant response rating (0 to 100), Blackgrass","[16]; Preemergence, 250 g ai/ha",100
same,Blackgrass plant response rating,[16]; [29],100
same,"Cupgrass, Woolly plant response rating",[17]; [18],100
same,"Plant response rating, Cupgrass, Woolly",[17]; Preemergence,80
same,"Plant response rating (0 to 100), Cupgrass, Woolly","[17]; Preemergence, 250 g ai/ha",100
